Several values for one entry are separate records, joined by “and”; a condition that tells them apart may be missing. Identical values can stand only once. Like-named read-outs stand apart in the source and are kept apart here.
Legend:
[1] = biological target: T1, human CHRM2 (M2) (Homo sapiens, UniProt P08172); assay: Eurofins CEREP panel, M2; format: binding
T1 construct: purchased Eurofins Cerep (SafetyScreen44), recognised from the panel format
T1 sequence (P08172 1-466): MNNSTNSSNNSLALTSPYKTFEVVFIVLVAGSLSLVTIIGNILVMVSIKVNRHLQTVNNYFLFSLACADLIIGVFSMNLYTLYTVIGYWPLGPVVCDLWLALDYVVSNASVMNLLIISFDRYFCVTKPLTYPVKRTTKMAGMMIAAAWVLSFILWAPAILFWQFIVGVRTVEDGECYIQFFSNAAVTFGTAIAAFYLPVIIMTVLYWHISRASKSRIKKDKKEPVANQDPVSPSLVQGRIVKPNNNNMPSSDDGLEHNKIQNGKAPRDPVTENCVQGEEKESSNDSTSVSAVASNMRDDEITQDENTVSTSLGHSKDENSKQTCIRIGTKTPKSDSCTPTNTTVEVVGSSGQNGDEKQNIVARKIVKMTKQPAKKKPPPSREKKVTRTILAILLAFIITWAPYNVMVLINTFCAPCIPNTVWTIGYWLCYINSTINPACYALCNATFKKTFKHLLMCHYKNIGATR

[2] = system: KV channel; assay: In vitro CEREP profiling, KV channel (antagonist radioligand); format: binding; conditions: test compound concentration 10 uM
Excerpt: (§1) Supplement media-1.zip/Safety_Panel_Profile.csv, table | column: perc_inhibition

[3] = Protein binding; format: in vitro ADME
Excerpt: Supplement media-1.zip/Protein_Binding.csv, table | column: fu; perc_bound; perc_free; perc_recovered

[4] = system: HeLa-ACE2 cells; conditions: for perc_max_measured: highest measured response of the dose series; for perc_min_measured: lowest measured response of the dose series
[5] = biological target: T2, A2A (h) (Homo sapiens, UniProt P29274); assay: In vitro CEREP profiling, A2A (h) (agonist radioligand); format: binding; conditions: test compound 10 uM
T2 construct: purchased Eurofins Cerep (SafetyScreen44), recognised from the panel format
Excerpt: as §1

[6] = biological target: T3, alpha2A (h) (Homo sapiens, UniProt P08913); assay: In vitro CEREP profiling, alpha2A (h) (antagonist radioligand); format: binding; conditions: test compound 10 uM
T3 construct: purchased Eurofins Cerep (SafetyScreen44), recognised from the panel format
T3 sequence (P08913 1-465): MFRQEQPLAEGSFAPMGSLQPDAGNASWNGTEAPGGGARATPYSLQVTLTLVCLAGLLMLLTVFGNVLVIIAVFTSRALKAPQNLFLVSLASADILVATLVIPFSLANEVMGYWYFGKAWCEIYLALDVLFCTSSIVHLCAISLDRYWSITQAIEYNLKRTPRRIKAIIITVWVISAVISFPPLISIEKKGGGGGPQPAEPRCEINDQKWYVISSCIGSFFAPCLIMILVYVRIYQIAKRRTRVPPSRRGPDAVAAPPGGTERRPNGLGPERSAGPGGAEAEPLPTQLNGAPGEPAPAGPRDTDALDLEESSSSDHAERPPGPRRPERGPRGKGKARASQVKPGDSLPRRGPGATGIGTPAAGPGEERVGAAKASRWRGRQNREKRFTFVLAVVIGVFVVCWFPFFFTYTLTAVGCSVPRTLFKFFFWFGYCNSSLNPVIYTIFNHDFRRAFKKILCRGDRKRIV
Excerpt: as §1

[7] = system: CYP; assay: CYP inhibition; format: in vitro ADME; conditions: In vitro CYP inhibition pooled; for potency: potency class in words
Excerpt: Supplement media-1.zip/CYP_Inhibition.csv, table | column: ic50; potency

[8] = biological target: T4, M3 (h) (Homo sapiens, UniProt P20309); assay: In vitro CEREP profiling, M3 (h) (antagonist radioligand); format: binding; conditions: test compound concentration 10 uM
T4 construct: purchased Eurofins Cerep (SafetyScreen44), recognised from the panel format
Excerpt: as §1

[9] = biological target: T5, alpha1A (h) (Homo sapiens, UniProt P35348); assay: In vitro CEREP profiling, alpha1A (h) (antagonist radioligand); format: binding; conditions: test compound 10 uM
T5 construct: purchased Eurofins Cerep (SafetyScreen44), recognised from the panel format
T5 sequence (P35348 1-466): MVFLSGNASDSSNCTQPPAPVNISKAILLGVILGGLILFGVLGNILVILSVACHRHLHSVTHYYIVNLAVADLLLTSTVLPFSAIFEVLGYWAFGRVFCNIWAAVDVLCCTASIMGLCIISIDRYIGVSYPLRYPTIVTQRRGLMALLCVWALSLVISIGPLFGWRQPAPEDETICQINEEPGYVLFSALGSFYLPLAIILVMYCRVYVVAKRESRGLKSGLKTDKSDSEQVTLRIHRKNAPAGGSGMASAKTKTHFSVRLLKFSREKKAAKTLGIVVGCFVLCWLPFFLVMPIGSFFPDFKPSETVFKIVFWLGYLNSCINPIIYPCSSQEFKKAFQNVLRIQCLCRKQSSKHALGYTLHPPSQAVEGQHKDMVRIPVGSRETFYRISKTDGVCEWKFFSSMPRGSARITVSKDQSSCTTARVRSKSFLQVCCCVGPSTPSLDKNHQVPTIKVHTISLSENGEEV
Excerpt: as §1

[10] = biological target: T6, CB1 (h) (Homo sapiens, UniProt P21554); assay: In vitro CEREP profiling, CB1 (h) (agonist radioligand); format: binding; conditions: test compound 10 uM
T6 construct: purchased Eurofins Cerep (SafetyScreen44), recognised from the panel format
Excerpt: as §1

[11] = In vitro dog plasma protein binding
[12] = In vitro fetal calf serum protein binding
[13] = In vitro human plasma protein binding
[14] = In vitro mouse plasma protein binding
[15] = In vitro rat plasma protein binding
[16] = protocol HeLa-ACE2 cytotoxicity
[17] = read-out: perc_inhibition (% inhibition of the binding of a ligand specific for each target)
[18] = M2 (h) (antagonist radioligand), test compound concentration 10 uM

T6 sequence (P21554 whole entry): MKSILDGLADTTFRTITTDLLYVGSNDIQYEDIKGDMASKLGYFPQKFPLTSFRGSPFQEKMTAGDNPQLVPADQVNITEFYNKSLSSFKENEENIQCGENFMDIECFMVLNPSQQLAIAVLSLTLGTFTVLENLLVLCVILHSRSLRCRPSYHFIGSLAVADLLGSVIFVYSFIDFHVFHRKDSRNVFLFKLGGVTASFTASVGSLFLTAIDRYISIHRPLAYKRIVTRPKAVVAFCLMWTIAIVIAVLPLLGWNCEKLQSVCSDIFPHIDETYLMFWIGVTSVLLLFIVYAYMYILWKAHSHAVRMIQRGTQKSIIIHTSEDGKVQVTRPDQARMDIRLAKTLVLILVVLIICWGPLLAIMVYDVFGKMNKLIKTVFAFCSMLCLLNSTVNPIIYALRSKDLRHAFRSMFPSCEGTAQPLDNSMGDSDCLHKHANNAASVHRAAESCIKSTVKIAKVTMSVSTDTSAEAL
T2 sequence (P29274 whole entry): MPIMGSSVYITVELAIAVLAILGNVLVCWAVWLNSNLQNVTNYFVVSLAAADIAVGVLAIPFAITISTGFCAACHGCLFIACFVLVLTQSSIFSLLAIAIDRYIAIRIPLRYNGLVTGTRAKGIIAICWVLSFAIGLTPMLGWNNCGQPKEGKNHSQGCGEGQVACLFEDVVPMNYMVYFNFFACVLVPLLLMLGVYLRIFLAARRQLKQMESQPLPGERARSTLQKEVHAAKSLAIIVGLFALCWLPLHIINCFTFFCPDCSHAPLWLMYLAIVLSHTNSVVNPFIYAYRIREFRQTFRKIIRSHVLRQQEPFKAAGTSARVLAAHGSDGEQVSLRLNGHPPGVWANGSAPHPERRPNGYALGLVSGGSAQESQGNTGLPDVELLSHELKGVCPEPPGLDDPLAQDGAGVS
T4 sequence (P20309 whole entry): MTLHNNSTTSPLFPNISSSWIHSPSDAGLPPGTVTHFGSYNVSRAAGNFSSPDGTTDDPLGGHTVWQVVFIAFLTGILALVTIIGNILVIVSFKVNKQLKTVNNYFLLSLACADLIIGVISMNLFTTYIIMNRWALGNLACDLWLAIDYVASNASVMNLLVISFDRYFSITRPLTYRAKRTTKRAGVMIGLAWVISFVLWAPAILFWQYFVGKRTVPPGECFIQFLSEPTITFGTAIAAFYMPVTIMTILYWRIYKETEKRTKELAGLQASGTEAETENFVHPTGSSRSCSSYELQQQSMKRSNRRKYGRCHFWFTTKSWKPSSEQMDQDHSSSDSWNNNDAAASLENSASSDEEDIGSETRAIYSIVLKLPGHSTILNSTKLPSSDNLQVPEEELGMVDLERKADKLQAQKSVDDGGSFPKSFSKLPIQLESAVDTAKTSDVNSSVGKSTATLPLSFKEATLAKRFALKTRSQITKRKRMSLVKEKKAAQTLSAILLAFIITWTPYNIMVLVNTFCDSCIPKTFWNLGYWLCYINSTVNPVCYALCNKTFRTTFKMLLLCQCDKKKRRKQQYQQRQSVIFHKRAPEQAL

CC(C)C(Nc1ncnc2[nH]c(C(=O)NC3CCN(C)C3)cc12)c1ccc2c(c1)S(=O)(=O)CCC2 (stereo not shown) [ASAP-0011198]
off-target activity at human CHRM2, in words ([1]; CEREP panel): moderate
inhibition at 10 µM ([1]; M2 (h) (antagonist radioligand), test compound concentration 10 uM, read-out: perc_inhibition (% inhibition of the binding of a ligand specific for each target)): 52%
perc_inhibition (% inhibition of the binding of a ligand specific for each target) [2]: 2%
perc_bound [3, 11]: 83.5%
perc_free [3, 11]: 16.5%
perc_recovered [3, 11]: 87.93%
fu [3, 12]: 0.173
perc_bound [3, 12]: 86.0% and 82.7%
perc_free [3, 12]: 14.0% and 17.3%
perc_recovered [3, 12]: 61.17% and 107.7%
fu [3, 13]: 0.271
perc_bound [3, 13]: 74.5% and 72.9%
perc_free [3, 13]: 25.5% and 27.1%
perc_recovered [3, 13]: 81.11% and 116.7%
fu [3, 14]: 0.184
perc_bound [3, 14]: 90.1% and 81.6%
perc_free [3, 14]: 9.91% and 18.4%
perc_recovered [3, 14]: 88.65% and 93.8%
fu [3, 15]: 0.164
perc_bound [3, 15]: 87.5% and 83.6%
perc_free [3, 15]: 12.5% and 16.4%
perc_recovered [3, 15]: 93.33% and 104.0%
fraction unbound ([3]; bovine, fetal calf serum, In vitro fetal calf serum protein binding): 0.14
fraction unbound ([3]; dog, plasma, In vitro dog plasma protein binding): 0.165
fraction unbound ([3]; human, plasma, In vitro human plasma protein binding): 0.255
fraction unbound ([3]; mouse, plasma, In vitro mouse plasma protein binding): 0.099
fraction unbound ([3]; rat, plasma, In vitro rat plasma protein binding): 0.125
cc10 ([4]; HeLa-ACE2 cytotoxicity): > 20.0 µM
perc_max_measured ([4]; HeLa-ACE2 cytotoxicity): 148.177%
perc_min_measured ([4]; HeLa-ACE2 cytotoxicity): 90.706%
CC50 [4, 16]: > 20 µM
cc10 [4, 16]: > 20.0 µM
perc_max_measured [4, 16]: 87.174%
perc_min_measured [4, 16]: 78.327%
inhibition at 10 µM [5, 17]: -4%
inhibition at 10 µM [6, 17]: 6%
potency ([7]; isoform 1A2): weak
potency ([7]; isoform 2C9): weak
potency ([7]; isoform 2C19): weak
potency ([7]; isoform 2D6): weak
potency ([7]; isoform 3A4): weak
inhibition at 10 µM [8, 17]: -9%
inhibition at 10 µM [9, 17]: 38%
inhibition at 10 µM [10, 17]: -10%

COc1ccc([C@H](Cc2nnn[nH]2)NC(=O)c2ncnc3[nH]ccc23)cc1 [ASAP-0015381]
perc_inhibition (% inhibition of the binding of a ligand specific for each target) [1, 18]: -12%
perc_inhibition (% inhibition of the binding of a ligand specific for each target) [2]: -1%
fu [3, 11]: 0.106
perc_bound [3, 11]: 89.4%
perc_free [3, 11]: 10.6%
perc_recovered [3, 11]: 90.64%
fu [3, 12]: 0.061
perc_bound [3, 12]: 93.9%
perc_free [3, 12]: 6.07%
perc_recovered [3, 12]: 101.6%
fu [3, 13]: 0.01
perc_bound [3, 13]: 99.0%
perc_free [3, 13]: 1.01%
perc_recovered [3, 13]: 102.0%
fu [3, 14]: 0.306
perc_bound [3, 14]: 69.4%
perc_free [3, 14]: 30.6%
perc_recovered [3, 14]: 84.29%
fu [3, 15]: 0.047
perc_bound [3, 15]: 95.3%
perc_free [3, 15]: 4.69%
perc_recovered [3, 15]: 100.2%
CC50 ([4]; HeLa-ACE2 cytotoxicity): > 20 µM
cc10 ([4]; HeLa-ACE2 cytotoxicity): > 20.0 µM
perc_max_measured ([4]; HeLa-ACE2 cytotoxicity): 115.218% and 123.48%
perc_min_measured ([4]; HeLa-ACE2 cytotoxicity): 79.698% and 90.022%
perc_inhibition (% inhibition of the binding of a ligand specific for each target) [5]: -13%
perc_inhibition (% inhibition of the binding of a ligand specific for each target) [6]: -1%
IC50 ([7]; isoform 1A2): > 50 µM
potency ([7]; isoform 1A2): weak
IC50 ([7]; isoform 2C9): 31.2 µM
potency ([7]; isoform 2C9): weak
IC50 ([7]; isoform 2C19): > 50 µM
potency ([7]; isoform 2C19): weak
IC50 ([7]; isoform 2D6): > 50 µM
potency ([7]; isoform 2D6): weak
IC50 ([7]; isoform 3A4): 25.4 µM
potency ([7]; isoform 3A4): weak
perc_inhibition (% inhibition of the binding of a ligand specific for each target) [8]: -15%
perc_inhibition (% inhibition of the binding of a ligand specific for each target) [9]: -7%
perc_inhibition (% inhibition of the binding of a ligand specific for each target) [10]: -8%

CNCc1cc(-c2cc3c(N[C@@H](c4ccc5c(c4)S(=O)(=O)CCC5)C(C)C)ncnc3[nH]2)co1 [ASAP-0011176]
perc_inhibition (% inhibition of the binding of a ligand specific for each target) [1, 18]: 52%
perc_inhibition (% inhibition of the binding of a ligand specific for each target) [2]: 1%
fu [3, 11]: 0.088
perc_bound [3, 11]: 91.2%
perc_free [3, 11]: 8.77%
perc_recovered [3, 11]: 70.87%
fu [3, 12]: 0.08
perc_bound [3, 12]: 92.0%
perc_free [3, 12]: 8.01%
perc_recovered [3, 12]: 78.6%
fu [3, 13]: 0.08
perc_bound [3, 13]: 92.0%
perc_free [3, 13]: 8.01%
perc_recovered [3, 13]: 78.61%
fu [3, 14]: 0.031
perc_bound [3, 14]: 96.9%
perc_free [3, 14]: 3.14%
perc_recovered [3, 14]: 94.01%
fu [3, 15]: 0.072
perc_bound [3, 15]: 92.8%
perc_free [3, 15]: 7.24%
perc_recovered [3, 15]: 95.34%
CC50 ([4]; HeLa-ACE2 cytotoxicity): > 20 µM
cc10 ([4]; HeLa-ACE2 cytotoxicity): > 20.0 µM
perc_max_measured ([4]; HeLa-ACE2 cytotoxicity): 120.991%
perc_min_measured ([4]; HeLa-ACE2 cytotoxicity): 77.721%
CC50 [4, 16]: > 20 µM
cc10 [4, 16]: > 20.0 µM
perc_max_measured [4, 16]: 106.042%
perc_min_measured [4, 16]: 91.552%
perc_inhibition (% inhibition of the binding of a ligand specific for each target) [5]: 21%
perc_inhibition (% inhibition of the binding of a ligand specific for each target) [6]: 15%
IC50 ([7]; isoform 1A2): 49.3 µM
potency ([7]; isoform 1A2): weak
IC50 ([7]; isoform 2C9): 5.25 µM
potency ([7]; isoform 2C9): moderate
IC50 ([7]; isoform 2C19): 22.6 µM
potency ([7]; isoform 2C19): weak
IC50 ([7]; isoform 2D6): 9.03 µM
potency ([7]; isoform 2D6): moderate
IC50 ([7]; isoform 3A4): 1.81 µM
potency ([7]; isoform 3A4): moderate-potent
perc_inhibition (% inhibition of the binding of a ligand specific for each target) [8]: 5%
perc_inhibition (% inhibition of the binding of a ligand specific for each target) [9]: 50%
perc_inhibition (% inhibition of the binding of a ligand specific for each target) [10]: 3%

Source: paper doi:10.1101/2024.08.19.608619, “Discovery of potent SARS-CoV-2 nsp3 macrodomain inhibitors uncovers lack of translation to cellular antiviral response” (bioRxiv, 2024)
